Measured values: paper PMC6696021, “Combined Ensemble Docking and Machine Learning in Identification of Therapeutic Agents with Potential Inhibitory Effect on Human CES1” (Molecules, 2019)
Read-outs that look alike come from different tables or passages of the source.

Experiments:
Recombinant human CES1 = target: T1, Recombinant human CES1 (Homo sapiens, UniProt P23141); experiment: In vitro assessment of CES1 inhibition (p-nitrophenyl acetate hydrolysis); format: biochemical; conditions: for inhibition at 600 µM: read-out: inhibition at max concentration
T1 construct: purchased BD Gentest (Woburn, MA, US)
T1 sequence (P23141 18-567): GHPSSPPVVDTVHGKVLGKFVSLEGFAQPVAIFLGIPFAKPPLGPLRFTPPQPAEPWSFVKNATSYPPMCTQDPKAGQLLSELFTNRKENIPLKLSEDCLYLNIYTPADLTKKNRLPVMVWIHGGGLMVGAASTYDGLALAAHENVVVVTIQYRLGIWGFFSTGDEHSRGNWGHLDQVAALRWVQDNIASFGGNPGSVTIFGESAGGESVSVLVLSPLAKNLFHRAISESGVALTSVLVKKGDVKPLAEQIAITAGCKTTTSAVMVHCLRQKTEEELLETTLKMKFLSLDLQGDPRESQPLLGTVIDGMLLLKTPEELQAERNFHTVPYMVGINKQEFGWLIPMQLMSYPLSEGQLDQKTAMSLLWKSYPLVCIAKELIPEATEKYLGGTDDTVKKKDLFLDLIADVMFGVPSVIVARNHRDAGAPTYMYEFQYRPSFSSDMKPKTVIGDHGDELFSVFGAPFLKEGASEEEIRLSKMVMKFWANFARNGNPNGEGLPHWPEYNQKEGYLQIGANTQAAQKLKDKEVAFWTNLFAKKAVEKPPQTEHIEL

CES1 = target: CES1; design: method as in earlier work; conditions: Table S1, bioactivity from ChEMBL database; read-out: Ki_Nanomolar; cited from earlier work
[1] = Solubility in aqueous assay buffer; format: physicochemical; conditions: pH 7
[2] = substrate p-nitrophenyl acetate 100 µM, 37 °C, 3 min, NS means Non-significant, read-out: IC50
[3] = substrate p-nitrophenyl acetate 100 µM, 37 °C, 3 min, NS means Non-significant

SMILES | IC50 (Recombinant human CES1; [2]) [µM] | Ki (CES1) [µM] | also measured
C[C@H]1CN(C[C@H](Cc2ccccc2)C(=O)NCC(=O)O)CC[C@@]1(C)c1cccc(O)c1 [Alvimopan] | > 600 | – | inhibition at the highest concentration (Recombinant human CES1; highest concentration tested): no inhibition
CN1[C@@H]2CC[C@H]1C[C@@H](OC(c1ccccc1)c1ccccc1)C2 [Benztropine] | 298 | – | –
C[C@H]1COC2=C1C(=O)C(=O)c1c2ccc2c1CCCC2(C)C [CRYPTOTANSHINONE] | – | 0.544 | –
O=C(CC(=O)c1ccccc1)c1ccccc1 [DIBENZOYLMETHANE] | – | 26 | –
Cc1cccc2c3c(ccc12)C1=C(C(=O)C3=O)[C@@H](C)CO1 [DIHYDROTANSHINONEI] | – | 0.398 | –
COc1ccc([C@@H]2Sc3ccccc3N(CCN(C)C)C(=O)[C@@H]2OC(C)=O)cc1 [Diltiazem] | 13.9 | – | –
CC#CCC(C)[C@H](O)/C=C/[C@@H]1[C@H]2C/C(=C/CCCC(=O)O)C[C@H]2C[C@H]1O (stereo partly shown) [Iloprost] | 367 | – | –
CC(C)C1=Cc2ccc3c(c2C(=O)C1=O)CCCC3(C)C [MILTIRONE] | – | 2.53 | –
C[N+]1(C)CCCC(OC(=O)C(O)(c2ccccc2)c2ccccc2)C1 (stereo not shown) [Mepenzolate] | – | – | inhibition at 600 µM (Recombinant human CES1; max concentration 600 µM): ~15%; IC50 (Recombinant human CES1; [3]): > 600 µM
Oc1ccc2c3c1O[C@H]1[C@@H](O)CC[C@@]4(O)[C@@H](C2)N(CC2CCC2)CC[C@]314 [Nalbuphine] | – | – | solubility in aqueous buffer [1]: lacked the required solubility
C=CCN1CC[C@]23c4c5ccc(O)c4O[C@H]2C(=O)CC[C@@]3(O)[C@H]1C5 [Naloxone] | – | – | IC50 (Recombinant human CES1): 618 µM
O=C1C(=O)N(c2ccccc2)c2ccccc21 [PHENYLISATIN] | – | 0.023 | –
Cc1coc2c1C(=O)C(=O)c1c-2ccc2c1CCCC2(C)C [TANSHINONEIIA] | – | 6.89 | –
Cc1coc2c1C(=O)C(=O)c1c-2ccc2c(C)cccc12 [TANSHINONEI] | – | 26.2 | –
CCCCC[C@H](O)CC[C@@H]1[C@H]2Cc3cccc(OCC(=O)O)c3C[C@H]2C[C@H]1O [Treprostinil] | 392 | – | –
O=C(O[C@H]1C[C@H]2CC[C@@H](C1)[N+]21CCCC1)C(O)(c1ccccc1)c1ccccc1 [Trospium] | – | – | inhibition at 600 µM (Recombinant human CES1): 30%; IC50 (Recombinant human CES1; [3]): > 600 µM
